Here are results for one compound from PMC12027554, “Inhibition of ABCG2 by SCO-101 Enhances Chemotherapy Efficacy in Cancer” (International Journal of Molecular Sciences, 2025).

The structures appear in SMILES notation. Where only a bound is given, the exact number is not on record here.

Data set [1] deals with HT29SN-38 cells. The experiment in a line: Cellular dye efflux assay (Hoechst 33342), resistant cells. Type of data set: cell-based, human. The following applies: SCO-101 20 µM, Ko-143 1 µM, PSC833 1 µM. The method, then:
Twenty-four hours before the experiments, cells were seeded into 96-well Nunclon^TM plates at a density of 6000 (HT29), 7000 (PANC-1) or 8000 (LoVo) cells/well. The following day, cells were treated in triplicate with the relevant drugs at the indicated concentrations for 1 h. Next, 5 μg/mL Hoechst 33342 was added to the wells, and plates incubated at 37 °C for 30 min^−1 h. Cells were washed with cold PBS, treatments re-added and plates re-incubated at 37 °C for 30 min to 1 h. Plates were analyzed using a Celigo® (Nexcelom Bioscience, Lawrence, MA, USA) imaging cytometer. Data are expressed as percentages of fluorescence intensity, calculated through the following formula: % fluorescence intensity=Mean fluorescence intensity of sample/Mean fluorescence intensity of parental control×100
Fluorescent images were captured with an Olympus® IX71/TH4-200 microscope equipped with an Olympus® DP72 camera (Shinjuku, Tokyo, Japan), and cells were seeded at a 1.5 × 10^5 cells/well density and treated as described above.

The next data set relates to HT29PAR cells. As to the kind of experiment: Cell viability assay (MTT / CCK-8), drug-sensitive HT29. Format: cell-based, human. The following applies: Homo sapiens, HT-29, 72 h. The method, then:
Cells were seeded at a density of 0.2–1 × 10^4 cells/well into 96-well plates. One day after seeding, treatments were performed in triplicate for 72 h, or as otherwise indicated in the relevant panel/figure legend and kept at 37 °C/5% CO2. Growth medium alone (“untreated” cells) or DMSO was used as a control.
For MTT assays, media were replaced at the final timepoint with 100 μL of 1:10 MTT reagent (0.5 mg/mL in PBS) diluted in growth medium, and plates were incubated for 3 h. A total of 100 μL/well of stop buffer (50 g Sodium Dodecyl Sulfate, 245 mL ddH2O, 5 mL 1N HCl) was added and plates incubated for 24 h to let colored formazan crystals develop. Optical densities (ODs) were measured with a PowerWave^TM Microplate spectrophotometer (BioTek, Winooski, VT, USA) at 570 nm and 670 nm (background).
For CCK-8 assays, 100 μL of 1:10 CCK-8 reagent (pevonedistat-treated HT29 cells) diluted in medium was added to each well and cells incubated for 1–2 h at 37 °C. OD values were measured at 450 nm with a VersaMax microplate spectrophotometer (Molecular Devices, San Jose, CA, USA).
Background values were subtracted prior to further analysis. The percentage of cell viability was expressed as relative values versus untreated cells as determined by the various assays. EC50/IC50 values were calculated using GraphPad Prism (v10.4.1) and the in-built non-linear regression [log (inhibitor) vs. response—variable slope (four parameters)] calculation. For determination of synergy scores, the online tool SynergyFinder+ (https://synergyfinder.org access date 15 February 2025) was employed following 4 × 4- or 6 × 6-matrix dose-escalation cell viability experiments. Doses of drugs are indicated in the relevant figure legends and ranges have been chosen based on the response of cells to single-drug dose-dependent experiments. Synergy scores were calculated using the ZIP model, which takes the advantages of both the Loewe additivity and the Bliss independence models, aiming at a systematic assessment of various types of drug interaction patterns that may arise in a high-throughput drug combination screening.

The target in a further data set is MDR1/ABCB1 (Homo sapiens, UniProt P08183). As to the kind of experiment: Bidirectional transport of digoxin across Caco-2 cell monolayers. Format: cell-based. Also on record: endogenous in cells; host or cells: Caco-2. The following applies: Caco-2 monolayers, 50 µM SCO-101. As for the experimental part:
Bidirectional transport experiments (basolateral-to-apical and apical-to-basolateral) with the ABCG2 substrate estrone-3-sulfate and the MDR1/ABCB1 substrate digoxin were performed in Caco-2 cell monolayers as previously described.

Data set [2] concerns the target other members of the UGT family. The experiment in a line: Inhibition of glucuronidation activity of other UGT family enzymes. Type of data set: biochemical. The following applies: Figure S3F.
For data set [3], the system named is HT29SN-38 cells. As to the kind of experiment: Colony formation assay. Format: cell-based, human. The following applies: 7 days. As for the experimental part: Cells were trypsinized and counted, and 400 cells/well were seeded in 24-well plates. Drug treatments were performed 24 h after seeding for a total duration of 6 (LoVo) or 7 (HT29) days. Next, media were removed, and cells were washed with PBS and stained with 250 μL Crystal Violet solution for 10 min. Crystal Violet was then removed, plates rinsed with tap water, images captured, and colonies counted using the ImageJ software (version 1.54p). Survival fraction and plating efficiency (PE) were calculated as follows: Survival Fraction=number of colonies/number of cells plated ∗ PE PE=number of colonies formed in control/number of cells seeded

Chain of MDR1/ABCB1 (P08183 whole entry): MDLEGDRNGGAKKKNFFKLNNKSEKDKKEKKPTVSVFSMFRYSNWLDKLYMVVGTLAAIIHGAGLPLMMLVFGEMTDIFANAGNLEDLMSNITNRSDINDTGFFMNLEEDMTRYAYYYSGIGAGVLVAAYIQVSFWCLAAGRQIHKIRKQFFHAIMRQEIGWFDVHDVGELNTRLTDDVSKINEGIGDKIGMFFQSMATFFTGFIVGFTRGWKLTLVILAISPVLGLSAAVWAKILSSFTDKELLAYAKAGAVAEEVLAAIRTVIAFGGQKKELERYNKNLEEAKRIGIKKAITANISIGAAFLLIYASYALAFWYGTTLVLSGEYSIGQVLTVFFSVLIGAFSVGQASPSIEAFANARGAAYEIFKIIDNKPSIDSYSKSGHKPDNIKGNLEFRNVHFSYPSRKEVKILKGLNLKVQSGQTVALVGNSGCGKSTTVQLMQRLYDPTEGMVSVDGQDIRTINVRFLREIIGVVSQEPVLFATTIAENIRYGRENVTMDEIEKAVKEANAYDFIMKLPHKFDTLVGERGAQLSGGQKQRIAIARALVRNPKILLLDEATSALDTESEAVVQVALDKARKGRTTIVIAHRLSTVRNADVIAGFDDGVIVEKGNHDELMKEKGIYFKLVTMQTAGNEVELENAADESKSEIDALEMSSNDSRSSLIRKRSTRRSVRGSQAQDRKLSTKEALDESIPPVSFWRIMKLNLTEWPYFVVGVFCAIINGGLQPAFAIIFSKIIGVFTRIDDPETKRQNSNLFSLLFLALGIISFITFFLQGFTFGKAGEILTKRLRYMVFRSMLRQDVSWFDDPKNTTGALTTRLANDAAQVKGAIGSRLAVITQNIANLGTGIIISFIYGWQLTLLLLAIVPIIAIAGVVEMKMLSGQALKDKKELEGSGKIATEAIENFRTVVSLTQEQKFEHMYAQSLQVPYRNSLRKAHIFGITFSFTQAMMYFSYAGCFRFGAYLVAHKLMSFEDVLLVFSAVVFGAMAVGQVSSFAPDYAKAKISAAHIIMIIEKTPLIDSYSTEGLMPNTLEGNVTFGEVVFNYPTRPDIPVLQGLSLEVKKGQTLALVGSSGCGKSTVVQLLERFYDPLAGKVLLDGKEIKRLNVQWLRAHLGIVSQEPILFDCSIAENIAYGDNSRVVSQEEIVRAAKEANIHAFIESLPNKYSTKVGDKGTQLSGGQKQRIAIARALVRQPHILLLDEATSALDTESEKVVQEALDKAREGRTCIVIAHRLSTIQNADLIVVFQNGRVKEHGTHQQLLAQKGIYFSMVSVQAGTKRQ

In the case of `O=C(Nc1cc(C(F)(F)F)cc(C(F)(F)F)c1)Nc1ccc(Br)cc1-c1nnn[nH]1` [SCO-101, N-[4-Bromo-2-(1H-1,2,3,4-tetrazol-5-yl)phenyl]-N′-[3,5-bis(trifluoromethyl)phenyl]urea], the H33342 dye accumulation result in the data set on HT29SN-38 cells [1] was “restored”. The IC50 in the data set on HT29PAR cells is above 25 µM. In addition, the “transport of the MDR1/ABCB1 substrate digoxin” value at MDR1/ABCB1 is recorded as “only a limited difference”. Further, the “IC50 for other members of the UGT family compared with UGT1A1” value in data set [2] is listed as “higher IC50 values”. Moreover, the “colony formation ability (survival fraction)” value in the data set with HT29SN-38 cells [3] (10 µM SCO-101 alone) is “did not affect”. Besides, the “colony formation ability, SCO-101 in combination with SN-38” value with HT29SN-38 cells [3] (SCO-101 0–20 µM + SN-38 0.01 μM, vs SCO-101 alone) is given as “significant reduction”.
